# In ChEMBL document CHEMBL3352057, “Novel fluorinated pyrrolo[1,2-a]pyrazine-2,6-dione derivatives: synthesis and anticonvulsant evaluation in animal models of epilepsy” (Bioorg Med Chem, 2014):
# Activity calls are given as the source filed them. The rule behind the calls is not given here.
# Experiments:
# [1] = tested on: Mus musculus; assay: Anticonvulsant activity in albino CF1 mouse assessed as protection against subcutaneous metrazol-induced seizures at 100 mg/kg, ip measured after 0.5 hr; format: functional, organism-based; design: dose 100 mg/kg
# [2] = tested on: Mus musculus; assay: Anticonvulsant activity in albino CF1 mouse assessed as protection against maximal electroshock-induced seizures at 100 mg/kg, ip measured after 0.5 hr; format: functional, organism-based; design: dose 100 mg/kg
# [3] = tested on: Mus musculus; assay: Anticonvulsant activity in albino CF1 mouse assessed as protection against subcutaneous metrazol-induced seizures at 100 mg/kg, ip measured after 1 hr; format: functional, organism-based; design: dose 100 mg/kg
# [4] = tested on: Mus musculus; assay: Anticonvulsant activity in albino CF1 mouse assessed as protection against 32 mA current-induced seizures at 100 mg/kg, ip measured after 2 hrs; format: functional, organism-based; design: dose 100 mg/kg
# [5] = tested on: Mus musculus; assay: Neurotoxicity in albino CF1 mouse at 100 mg/kg, ip measured after 0.5 hr; format: toxicity, organism-based; design: dose 100 mg/kg, route intraperitoneal; conditions: in vivo
# [6] = tested on: Rattus norvegicus; assay: Anticonvulsant activity in pilocarpine-induced status prevention Sprague-Dawley rat model assessed as weight change 24 hrs post-first stage 3 seizure of non-protected rat at 300 mg/kg, ip measured after 0.5 hr; format: functional; conditions: route intraperitoneal
# [7] = tested on: Mus musculus; assay: Anticonvulsant activity in albino CF1 mouse assessed as protection against maximal electroshock-induced seizures at 100 mg/kg, ip measured after 1 hr; format: functional, organism-based; design: dose 100 mg/kg
# [8] = tested on: Mus musculus; assay: Neurotoxicity in 32 mA current-induced seizure albino CF1 mouse model at 100 mg/kg, ip measured after 0.5 hr; format: toxicity, organism-based; design: dose 100 mg/kg, route intraperitoneal; conditions: in vivo
# [9] = tested on: Mus musculus; assay: Anticonvulsant activity in albino CF1 mouse assessed as protection against 32 mA current-induced seizures at 100 mg/kg, ip measured after 0.5 hr; format: functional, organism-based; design: dose 100 mg/kg
# [10] = tested on: Mus musculus; assay: Neurotoxicity in 32 mA current-induced seizure albino CF1 mouse model at 100 mg/kg, ip measured after 2 hrs; format: toxicity, organism-based; design: dose 100 mg/kg, route intraperitoneal; conditions: in vivo
# [11] = tested on: Mus musculus; assay: Anticonvulsant activity in albino CF1 mouse assessed as protection against maximal electroshock-induced seizures at 100 mg/kg, ip measured after 0.25 hr; format: functional, organism-based; design: dose 100 mg/kg
# [12] = tested on: Mus musculus; assay: Anticonvulsant activity in albino CF1 mouse assessed as protection against subcutaneous metrazol-induced seizures at 100 mg/kg, ip measured after 4 hrs; format: functional, organism-based; design: dose 100 mg/kg
# [13] = tested on: Mus musculus; assay: Neurotoxicity in albino CF1 mouse at 100 mg/kg, ip measured after 0.25 hr; format: toxicity, organism-based; design: dose 100 mg/kg, route intraperitoneal; conditions: in vivo
# [14] = tested on: Mus musculus; assay: Neurotoxicity in 32 mA current-induced seizure albino CF1 mouse model at 100 mg/kg, ip measured after 1 hr; format: toxicity, organism-based; design: dose 100 mg/kg, route intraperitoneal; conditions: in vivo
# [15] = tested on: Mus musculus; assay: Anticonvulsant activity in albino CF1 mouse assessed as protection against 32 mA current-induced seizures at 100 mg/kg, ip measured after 1 hr; format: functional, organism-based; design: dose 100 mg/kg
# [16] = tested on: Mus musculus; assay: Neurotoxicity in 32 mA current-induced seizure albino CF1 mouse model at 100 mg/kg, ip measured after 4 hrs; format: toxicity, organism-based; design: dose 100 mg/kg, route intraperitoneal; conditions: in vivo
# [17] = tested on: Mus musculus; assay: Neurotoxicity in albino CF1 mouse at 100 mg/kg, ip measured after 1 hr; format: toxicity, organism-based; design: dose 100 mg/kg, route intraperitoneal; conditions: in vivo
# [18] = tested on: Mus musculus; assay: Neurotoxicity in albino CF1 mouse at 100 mg/kg, ip measured after 4 hrs; format: toxicity, organism-based; design: dose 100 mg/kg, route intraperitoneal; conditions: in vivo
# [19] = tested on: Mus musculus; assay: Anticonvulsant activity in albino CF1 mouse assessed as protection against subcutaneous metrazol-induced seizures at 100 mg/kg, ip measured after 0.25 hr; format: functional, organism-based; design: dose 100 mg/kg
# [20] = tested on: Mus musculus; assay: Anticonvulsant activity in albino CF1 mouse assessed as protection against maximal electroshock-induced seizures at 100 mg/kg, ip measured after 4 hrs; format: functional, organism-based; design: dose 100 mg/kg
# [21] = tested on: Mus musculus; assay: Anticonvulsant activity in albino CF1 mouse assessed as protection against 32 mA current-induced seizures at 100 mg/kg, ip measured after 0.25 hr; format: functional, organism-based; design: dose 100 mg/kg
# [22] = tested on: Rattus norvegicus; assay: Anticonvulsant activity in pilocarpine-induced status prevention Sprague-Dawley rat model assessed as weight change 24 hrs post-first stage 3 seizure of protected rat at 300 mg/kg, ip measured after 0.5 hr; format: functional; conditions: route intraperitoneal
# [23] = tested on: Mus musculus; assay: Anticonvulsant activity in albino CF1 mouse assessed as protection against 32 mA current-induced seizures at 100 mg/kg, ip measured after 4 hrs; format: functional, organism-based; design: dose 100 mg/kg
# [24] = tested on: Mus musculus; assay: Neurotoxicity in 32 mA current-induced seizure albino CF1 mouse model at 100 mg/kg, ip measured after 0.25 hr; format: toxicity, organism-based; design: dose 100 mg/kg, route intraperitoneal; conditions: in vivo
smiles,measurement,setting,value
O=C1NC(=O)[C@@H]2CCCN2[C@H]1c1ccc(F)cc1,Activity,[1],inactive
same,Activity,[2],inactive
same,Activity,[3],inactive
same,Activity,[4],inactive
same,Activity,[5],Non-toxic
same,Activity,[6],-30 g
same,Activity,[7],Active
same,Activity,[8],Non-toxic
same,Activity,[9],inactive
same,Activity,[10],Non-toxic
same,Activity,[11],Active
same,Activity,[12],inactive
same,Activity,[13],Non-toxic
same,Activity,[14],Non-toxic
same,Activity,[15],inactive
same,Activity,[16],Non-toxic
same,Activity,[17],Non-toxic
same,Activity,[18],Non-toxic
same,Activity,[19],Active
same,Activity,[20],inactive
same,Activity,[21],Active
same,Activity,[22],-12 g
same,Activity,[23],inactive
same,Activity,[24],Non-toxic
